The source of these data is article PMC5423244, “Synthesis and Biological Evaluation of N-(5-(pyridin-2-yl)-1,3,4-thiadiazol-2-yl)benzamide Derivatives as Lipoxygenase Inhibitor with Potential Anticancer Activity” (Iranian Journal of Pharmaceutical Research : IJPR, 2017).

For this assay, the target named is T1, SLO; 15-lipoxygenase-1 (15-LOX-1) (Glycine max, UniProt P08170).
T1 construct: gene LOX1.1; SLO (abbreviation not spelt out); the introduction and aim speak of human 15-LO-1
T1 sequence (P08170 1-839): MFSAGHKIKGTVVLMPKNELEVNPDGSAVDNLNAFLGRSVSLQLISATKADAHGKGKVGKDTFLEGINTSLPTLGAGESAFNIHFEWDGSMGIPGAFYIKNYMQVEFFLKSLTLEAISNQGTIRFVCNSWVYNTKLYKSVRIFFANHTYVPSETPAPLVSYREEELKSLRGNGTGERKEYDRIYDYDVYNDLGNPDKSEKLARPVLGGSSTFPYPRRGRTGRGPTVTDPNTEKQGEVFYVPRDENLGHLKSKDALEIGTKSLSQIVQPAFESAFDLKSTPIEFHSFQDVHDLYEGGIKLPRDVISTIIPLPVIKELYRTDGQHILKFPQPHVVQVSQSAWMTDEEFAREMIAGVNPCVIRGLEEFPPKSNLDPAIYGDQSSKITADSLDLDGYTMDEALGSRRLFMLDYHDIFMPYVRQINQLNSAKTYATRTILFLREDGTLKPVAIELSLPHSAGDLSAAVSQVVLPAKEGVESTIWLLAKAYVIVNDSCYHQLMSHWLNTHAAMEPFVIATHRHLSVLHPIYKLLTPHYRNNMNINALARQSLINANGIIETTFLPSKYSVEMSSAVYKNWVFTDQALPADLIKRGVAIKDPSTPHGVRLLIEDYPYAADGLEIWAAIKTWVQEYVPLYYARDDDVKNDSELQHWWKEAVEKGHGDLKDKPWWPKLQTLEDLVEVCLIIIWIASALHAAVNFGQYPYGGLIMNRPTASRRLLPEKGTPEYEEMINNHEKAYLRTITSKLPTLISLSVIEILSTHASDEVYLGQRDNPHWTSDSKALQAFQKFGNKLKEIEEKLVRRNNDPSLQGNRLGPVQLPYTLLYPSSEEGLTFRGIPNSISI
Nature of the assay: linoleic acid hydroperoxide by MBTH/DMAB/hemoglobin colour reaction, […] nm. In kind it is biochemical.
`O=C(Nc1nnc(-c2ccccn2)s1)c1ccccc1Cl` [4a, 2-Chloro-N-(5-(pyridin-2-yl)-1,3,4-thiadiazol-2-yl)benzamide] came in with an inhibition at 200 µM of 8%.
As for `O=C(Nc1nnc(-c2ccccn2)s1)c1cccc(Cl)c1` [4b, 3-Chloro-N-(5-(pyridin-2-yl)-1,3,4-thiadiazol-2-yl)benzamide], the figure is 8%; as for `O=C(Nc1nnc(-c2ccccn2)s1)c1ccc(Cl)cc1` [4c, 4-Chloro-N-(5-(pyridin-2-yl)-1,3,4-thiadiazol-2-yl)benzamide], 12%.
For `O=C(Nc1nnc(-c2ccccn2)s1)c1ccccc1F` [4d, 2-Fluoro-N-(5-(pyridin-2-yl)-1,3,4-thiadiazol-2-yl)benzamide] the value was 17%; for `O=C(Nc1nnc(-c2ccccn2)s1)c1cccc(F)c1` [4e, 3-Fluoro-N-(5-(pyridin-2-yl)-1,3,4-thiadiazol-2-yl)benzamide], 13%; for `O=C(Nc1nnc(-c2ccccn2)s1)c1ccc(F)cc1` [4f, 4-Fluoro-N-(5-(pyridin-2-yl)-1,3,4-thiadiazol-2-yl)benzamide], 25%.
For `COc1ccccc1C(=O)Nc1nnc(-c2ccccn2)s1` [4j, 2-Methoxy-N-(5-(pyridin-2-yl)-1,3,4-thiadiazol-2-yl)benzamide] the value was 28%; for `COc1cccc(C(=O)Nc2nnc(-c3ccccn3)s2)c1` [4k, 3-Methoxy-N-(5-(pyridin-2-yl)-1,3,4-thiadiazol-2-yl)benzamide], 26%.
On to `COc1ccc(C(=O)Nc2nnc(-c3ccccn3)s2)cc1` [4l, 4-Methoxy-N-(5-(pyridin-2-yl)-1,3,4-thiadiazol-2-yl)benzamide], for which the inhibition at 200 µM stood at 14%.

The inhibition is how much of the control response was suppressed.
